Each structure is given as a SMILES string.

In the first test the target is FXR (Homo sapiens (Human), UniProt Q96RI1). The experiment in a line: transient human FXR/Gal4-luciferase reporter assay. It counts as cell-based.
Chain of FXR (Q96RI1 262-486): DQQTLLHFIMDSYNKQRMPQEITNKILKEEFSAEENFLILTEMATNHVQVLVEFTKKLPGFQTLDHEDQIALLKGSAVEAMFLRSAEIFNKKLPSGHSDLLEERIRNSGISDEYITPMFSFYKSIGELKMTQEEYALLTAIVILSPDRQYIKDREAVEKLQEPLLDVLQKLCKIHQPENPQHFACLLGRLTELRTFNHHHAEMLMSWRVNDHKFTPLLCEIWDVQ
Settings: not given
An outline of the steps:
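Compound exposure ran overnight at 37 °C and activity was measured as luminescence with Steady-Glo reagent. The cells were a HEK293 line stably expressing firefly luciferase under five Gal4 response elements. They were transiently transfected, one night beforehand, with a plasmid encoding Gal4 DNA-binding domain fused to the human FXR ligand-binding domain.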
`CCOc1ccc(-c2ccnc(N(CC34CCC(c5noc(C(C)(C)C)n5)(CC3)CC4)C(=O)C34CC(F)(C3)C4)c2)cc1` [Example 532, N-((4-(5-(tert-butyl)-1,2,4-oxadiazol-3-yl)bicyclo[2.2.2]octan-1-yl)methyl)-N-(4-(4-ethoxyphenyl)pyridin-2-yl)-3-fluorobicyclo[1.1.1]pentane-1-carboxamide]: the EC50 came out at 86 nM.

`CCc1cnc(-c2ccnc(N(CC34CCC(c5noc(C(C)(C)C)n5)(CC3)CC4)C(=O)C34CC(F)(C3)C4)c2)nc1` [Example 543, N-((4-(5-(tert-butyl)-1,2,4-oxadiazol-3-yl)bicyclo[2.2.2]octan-1-yl)methyl)-N-(4-(5-ethylpyrimidin-2-yl)pyridin-2-yl)-3-fluorobicyclo[1.1.1]pentane-1-carboxamide] gave a 50% effective concentration (EC50) of 14 nM.

As for `CC(C)(C)c1noc(C23CCC(CN(C(=O)C45CC(F)(C4)C5)c4cncc(-c5ccc(NS(C)(=O)=O)cc5)c4)(CC2)CC3)n1` [Example 475, N-((4-(3-(tert-butyl)-1,2,4-oxadiazol-5-yl)bicyclo[2.2.2]octan-1-yl)methyl)-3-fluoro-N-(5-(4-(methylsulfonamido)phenyl)pyridin-3-yl)bicyclo[1.1.1]pentane-1-carboxamide], the response was half-maximal at 1600 nM (EC50).

With `CCOc1ccc(-c2cccc(N(CC34CCC(c5noc(C(F)F)n5)(CC3)CC4)C(=O)C34CC(F)(C3)C4)c2)cc1` [Example 461, N-((4-(5-(difluoromethyl)-1,2,4-oxadiazol-3-yl)bicyclo[2.2.2]octan-1-yl)methyl)-N-(4′-ethoxy-[1,1′-biphenyl]-3-yl)-3-fluorobicyclo[1.1.1]pentane-1-carboxamide], it took 603 nM to reach a half-maximal effect (EC50).

Take `Cc1nc2ccc(-c3cccc(N(CC45CCC(c6nc(C7CC7)no6)(CC4)CC5)C(=O)C45CC(F)(C4)C5)c3)cc2s1` [Example 555, N-((4-(3-cyclopropyl-1,2,4-oxadiazol-5-yl)bicyclo[2.2.2]octan-1-yl)methyl)-3-fluoro-N-(3-(2-methylbenzo[d]thiazol-6-yl)phenyl)bicyclo[1.1.1]pentane-1-carboxamide]: it took 55 nM to reach a half-maximal effect (EC50).

The same test, now with this note: Gal4-hFXR fusion construct, HEK293 reporter cells; response relative to 8 μM GW-4064.
With `COc1cc(-c2cccc(N(CC34CCC(c5nc(C6CC6)no5)(CC3)OC4)C(=O)C34CC(F)(C3)C4)c2)ccn1` [Example 339, N-((1-(3-cyclopropyl-1,2,4-oxadiazol-5-yl)-2-oxabicyclo[2.2.2]octan-4-yl)methyl)-3-fluoro-N-(3-(2-methoxypyridin-4-yl)phenyl)bicyclo[1.1.1]pentane-1-carboxamide], a half-maximal response (EC50) required 378 nM.

`CCOc1ccc(-c2cncc(N(CC34CCC(c5nc(C6CC6)no5)(CC3)CC4)C(=O)C34CC(F)(C3)C4)c2)cc1` [Example 424, N-((4-(3-cyclopropyl-1,2,4-oxadiazol-5-yl)bicyclo[2.2.2]octan-1-yl)methyl)-N-(5-(4-ethoxyphenyl)pyridin-3-yl)-3-fluorobicyclo[1.1.1]pentane-1-carboxamide] showed an EC50 of 483 nM.

`CC1(c2nc(C34CCC(CN(C(=O)C56CC(F)(C5)C6)c5cccc(-c6cnc(C7CC7)nc6)c5)(CC3)CC4)no2)CC1` [Example 403, N-(3-(2-cyclopropylpyrimidin-5-yl)phenyl)-3-fluoro-N-((4-(5-(1-methylcyclopropyl)-1,2,4-oxadiazol-3-yl)bicyclo[2.2.2]octan-1-yl)methyl)bicyclo[1.1.1]pentane-1-carboxamide] showed a 50% effective concentration (EC50) of 100 nM.

As for `CS(=O)(=O)Nc1cccc(-c2cccc(N(CC34CCC(c5nc(C6CC6)no5)(CC3)CC4)C(=O)C34CC(F)(C3)C4)c2)c1` [Example 256, N-((4-(3-cyclopropyl-1,2,4-oxadiazol-5-yl)bicyclo[2.2.2]octan-1-yl)methyl)-3-fluoro-N-(3′-(methylsulfonamido)-[1,1′-biphenyl]-3-yl)bicyclo[1.1.1]pentane-1-carboxamide], it took 219 nM to reach a half-maximal effect (EC50).

Compound `Cc1nc2ccc(-c3cccc(N(CC45CCC(c6ccc(C7(C#N)CC7)cc6)(CC4)OC5)C(=O)C45CC(F)(C4)C5)c3)cc2o1` [Example 347, N-((1-(4-(1-cyanocyclopropyl)phenyl)-2-oxabicyclo[2.2.2]octan-4-yl)methyl)-3-fluoro-N-(3-(2-methylbenzo[d]oxazol-6-yl)phenyl)bicyclo[1.1.1]pentane-1-carboxamide] gave an EC50 of 123 nM.

Consider `CC(C)(C)c1noc(C23CCC(CN(C(=O)C45CC(F)(C4)C5)c4cccc(-c5ccc(NS(=O)(=O)C(F)(F)F)cc5)c4)(CC2)CC3)n1` [Example 372, N-((4-(3-(tert-butyl)-1,2,4-oxadiazol-5-yl)bicyclo[2.2.2]octan-1-yl)methyl)-3-fluoro-N-(4′-((trifluoromethyl)sulfonamido)-[1,1′-biphenyl]-3-yl)bicyclo[1.1.1]pentane-1-carboxamide], for which the response was half-maximal at 131 nM (EC50).

`CC(C)(F)c1nc(C23CCC(CN(C(=O)C45CC(F)(C4)C5)c4cccc(-c5cn[nH]c(=O)c5)c4)(CC2)CC3)no1` [Example 594, 3-fluoro-N-((4-(5-(2-fluoropropan-2-yl)-1,2,4-oxadiazol-3-yl)bicyclo[2.2.2]octan-1-yl)methyl)-N-(3-(6-oxo-1,6-dihydropyridazin-4-yl)phenyl)bicyclo[1.1.1]pentane-1-carboxamide] yielded an EC50 of 1840 nM.

For `CC(F)(F)c1nc(C23CCC(CN(C(=O)C45CC(F)(C4)C5)c4cccc(C5CC5)c4)(CC2)CC3)no1` [Example 571, N-(3-cyclopropylphenyl)-N-((4-(5-(1,1-difluoroethyl)-1,2,4-oxadiazol-3-yl)bicyclo[2.2.2]octan-1-yl)methyl)-3-fluorobicyclo[1.1.1]pentane-1-carboxamide], it took 47 nM to reach a half-maximal effect (EC50).

Compound `COc1cc(-c2ccnc(N(CC34CCC(c5nc(C6CC6)no5)(CC3)CC4)C(=O)C34CC(F)(C3)C4)c2)ccn1` [Example 340, N-((4-(3-cyclopropyl-1,2,4-oxadiazol-5-yl)bicyclo[2.2.2]octan-1-yl)methyl)-3-fluoro-N-(2′-methoxy-[4,4′-bipyridin]-2-yl)bicyclo[1.1.1]pentane-1-carboxamide] displayed an EC50 of 398 nM.

`Cc1c(-c2cccc(N(CC34CCC(c5nc(C6CC6)no5)(CC3)CC4)C(=O)C34CC(F)(C3)C4)c2)cn2ncnc2c1C` [Example 312, N-((4-(3-cyclopropyl-1,2,4-oxadiazol-5-yl)bicyclo[2.2.2]octan-1-yl)methyl)-N-(3-(7,8-dimethyl-[1,2,4]triazolo[1,5-a]pyridin-6-yl)phenyl)-3-fluorobicyclo[1.1.1]pentane-1-carboxamide] gave an EC50 of 916 nM.

For `N#Cc1cc2sccc2nc1-c1cccc(N(CC23CCC(c4nc(C5CC5)no4)(CC2)CC3)C(=O)C23CC(F)(C2)C3)c1` [Example 316, N-(3-(6-cyanothieno[3,2-b]pyridin-5-yl)phenyl)-N-((4-(3-cyclopropyl-1,2,4-oxadiazol-5-yl)bicyclo[2.2.2]octan-1-yl)methyl)-3-fluorobicyclo[1.1.1]pentane-1-carboxamide], the concentration for a half-maximal effect (EC50) was determined as 138 nM.

The compound `O=C(N(CC12CCC(c3nc(C4CC4)no3)(CC1)CC2)c1cccc(-c2nc(Cl)nn3cccc23)c1)C12CC(F)(C1)C2` [Example 315, N-(3-(2-chloropyrrolo[2,1-f][1,2,4]triazin-4-yl)phenyl)-N-((4-(3-cyclopropyl-1,2,4-oxadiazol-5-yl)bicyclo[2.2.2]octan-1-yl)methyl)-3-fluorobicyclo[1.1.1]pentane-1-carboxamide] showed an EC50 of 913 nM.

In turn, `COc1ccc(-c2cccc(N(CC34CCC(c5nnc(C6CC6)o5)(CC3)CC4)C(=O)C34CC(F)(C3)C4)c2)cn1` [Example 343, N-((4-(5-cyclopropyl-1,3,4-oxadiazol-2-yl)bicyclo[2.2.2]octan-1-yl)methyl)-3-fluoro-N-(3-(6-methoxypyridin-3-yl)phenyl)bicyclo[1.1.1]pentane-1-carboxamide] yielded an EC50 of 154 nM.

Compound `CC(C)(C)c1nc(C23CCC(CN(C(=O)C45CC(F)(C4)C5)c4cccc(-c5ccc(OC(F)F)cc5)c4)(CC2)CC3)no1` [Example 444, N-((4-(5-(tert-butyl)-1,2,4-oxadiazol-3-yl)bicyclo[2.2.2]octan-1-yl)methyl)-N-(4′-(difluoromethoxy)-[1,1′-biphenyl]-3-yl)-3-fluorobicyclo[1.1.1]pentane-1-carboxamide] displayed an EC50 of 61 nM.

`CCOc1ccc(-c2cccc(N(CC34CCC(c5noc(C(C)C)n5)(CC3)CC4)C(=O)C34CC(F)(C3)C4)c2)cc1` [Example 431, N-(4′-ethoxy-[1,1′-biphenyl]-3-yl)-3-fluoro-N-((4-(5-isopropyl-1,2,4-oxadiazol-3-yl)bicyclo[2.2.2]octan-1-yl)methyl)bicyclo[1.1.1]pentane-1-carboxamide] came in with a 50% effective concentration (EC50) of 25 nM.

Compound `COc1ccc(-c2cccc(N(CC34CCC(c5nc(C(C)C)no5)(CC3)CC4)C(=O)C34CC(F)(C3)C4)c2)cn1` [Example 382, 3-fluoro-N-((4-(3-isopropyl-1,2,4-oxadiazol-5-yl)bicyclo[2.2.2]octan-1-yl)methyl)-N-(3-(6-methoxypyridin-3-yl)phenyl)bicyclo[1.1.1]pentane-1-carboxamide] had an EC50 of 98 nM.

As for `O=C(N(CC12CCC(c3nc(C4CC4)no3)(CC1)CC2)c1cccc(-c2nccc(C(F)(F)F)n2)c1)C12CC(F)(C1)C2` [Example 291, N-((4-(3-cyclopropyl-1,2,4-oxadiazol-5-yl)bicyclo[2.2.2]octan-1-yl)methyl)-3-fluoro-N-(3-(4-(trifluoromethyl)pyrimidin-2-yl)phenyl)bicyclo[1.1.1]pentane-1-carboxamide], the EC50 stood at 439 nM.

`Cc1cnc(-c2cccc(N(CC34CCC(c5nc(C6CC6)no5)(CC3)CC4)C(=O)C34CC(F)(C3)C4)c2)cn1` [Example 310, N-((4-(3-cyclopropyl-1,2,4-oxadiazol-5-yl)bicyclo[2.2.2]octan-1-yl)methyl)-3-fluoro-N-(3-(5-methylpyrazin-2-yl)phenyl)bicyclo[1.1.1]pentane-1-carboxamide] came in with an EC50 of 59 nM.

Values taken from US11254663B2 (BRISTOL-MYERS SQUIBB COMPANY, priority 2019, dated 2022).
